From ChEMBL document CHEMBL5370531, “Design, synthesis and pharmacological evaluation of 2,3-dihydrobenzofuran IRAK4 inhibitors for the treatment of diffuse large B-cell lymphoma” (Eur J Med Chem, 2023) come the findings set out here.

Experiment [1] deals with Tyrosine-protein kinase ABL1 (Homo sapiens) (UniProt P00519). Description: Inhibition of ABL (unknown origin) at 100 nM incubated for 1 hr in presence of ATP by ELISA analysis. In general terms: In an ELISA, binding on a coated surface is turned into a signal by an enzyme label.
In experiment [2] the test system is OCI-Ly10. Nature of the experiment: Induction of apoptosis in human OCILY10 cells assessed as upregulation of PARP cleavage at 0.1 to 1 uM incubated for 48 hrs by immunoblotting analysis. In kind it is functional, cell-based. As to conditions: dose 0.1-1 µM. For orientation: Immunoblotting shows a protein as a band on a membrane.
For experiment [3], the system named is OCI-Ly10. Nature of the experiment: Synergistic antiproliferative activity against human OCILY10 cells harboring MYD88 L265P assessed as inhibition of cell growth at 400 nM incubated for 72 hrs in presence of BTK inhibitor, ibrutinib at 6.2 nM by CCK-8 assay (reference value: 34.46 %). The experiment is classed as functional. For orientation: Tetrazolium dyes change colour on reduction, which living cells bring about.

Experiment [4] deals with Ephrin type-A receptor 2 (Homo sapiens) (UniProt P29317). Description: Inhibition of EPHA2 (unknown origin) at 100 nM incubated for 1 hr in presence of ATP by ELISA analysis.
Experiment [5] has as its target Fibroblast growth factor receptor 1 (Homo sapiens) (UniProt P11362). Description: Inhibition of FGFR1 (unknown origin) at 100 nM incubated for 1 hr in presence of ATP by ELISA analysis.
Experiment [6] deals with OCI-Ly10. Nature of the experiment: Induction of apoptosis in human OCILY10 cells assessed as early apoptotic cells at 0.5 uM incubated for 48 hrs by Annexin V-FITC/PI staining based flow cytometry (reference value: 5.4 %). In kind it is functional.
Experiment [7] concerns the target T1, Interleukin-1 receptor-associated kinase 4 (Homo sapiens, UniProt Q9NWZ3).
T1 sequence (Q9NWZ3 whole entry): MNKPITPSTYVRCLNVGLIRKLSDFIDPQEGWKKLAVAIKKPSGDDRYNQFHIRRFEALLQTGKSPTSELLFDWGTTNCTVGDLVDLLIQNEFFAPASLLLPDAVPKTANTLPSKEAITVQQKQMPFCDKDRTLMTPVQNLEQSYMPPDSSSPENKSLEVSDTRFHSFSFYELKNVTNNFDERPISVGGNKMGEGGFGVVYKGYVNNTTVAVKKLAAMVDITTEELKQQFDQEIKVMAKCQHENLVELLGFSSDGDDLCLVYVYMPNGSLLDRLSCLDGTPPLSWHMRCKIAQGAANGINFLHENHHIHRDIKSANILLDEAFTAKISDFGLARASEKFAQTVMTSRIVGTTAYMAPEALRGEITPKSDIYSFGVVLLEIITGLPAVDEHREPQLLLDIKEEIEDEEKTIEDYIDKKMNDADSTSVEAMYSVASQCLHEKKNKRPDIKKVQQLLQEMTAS
Description: Inhibition of IRAK4 (unknown origin) by Z-LYTE enzymatic kinase assay.

The test system of experiment [8] is OCI-Ly10. Nature of the experiment: Induction of apoptosis in human OCILY10 cells harboring MYD88 L265P assessed as late apoptotic cells at 0.1 uM incubated for 48 hrs in presence of BTK inhibitor, ibrutinib by Annexin V-FITC/PI staining based flow cytometry (reference value: 6.59 %). In kind it is functional.
Experiment [9] deals with OCI-Ly10. Description: Induction of apoptosis in human OCILY10 cells harboring MYD88 L265P assessed as upregulation of PARP cleavage at 0.1 uM in presence of BTK inhibitor, ibrutinib by immunoblotting analysis. In kind it is functional, cell-based.
The subject of experiment [10] is OCI-Ly10. Nature of the experiment: Induction of apoptosis in human OCILY10 cells assessed as early apoptotic cells at 0.1 uM incubated for 24 hrs by Annexin V-FITC/PI staining based flow cytometry (reference value: 10 %). The experiment is classed as functional.
Experiment [11] relates to OCI-Ly10. Description: Synergistic antiproliferative activity against human OCILY10 cells harboring MYD88 L265P assessed as inhibition of cell growth at 200 nM incubated for 72 hrs in presence of BTK inhibitor, ibrutinib at 1.6 nM by CCK-8 assay (reference value: 26.07 %). In kind it is functional.
Experiment [12] has as its system OCI-Ly10. Nature of the experiment: Synergistic antiproliferative activity against human OCILY10 cells harboring MYD88 L265P assessed as inhibition of cell growth at 400 nM incubated for 72 hrs in presence of BTK inhibitor, ibrutinib at 1.6 nM by CCK-8 assay (reference value: 34.46 %). The experiment is classed as functional.
The test system of experiment [13] is OCI-Ly10. Description: Induction of apoptosis in human OCILY10 cells assessed as early apoptotic cells at 1 uM incubated for 24 hrs by Annexin V-FITC/PI staining based flow cytometry (reference value: 10 %). The experiment is classed as functional.
Experiment [14] has as its target Insulin receptor (Homo sapiens) (UniProt P06213). Description: Inhibition of IR (unknown origin) at 100 nM incubated for 1 hr in presence of ATP by ELISA analysis.
For experiment [15], the target named is Insulin-like growth factor 1 receptor (Homo sapiens) (UniProt P08069). Description: Inhibition of IGFR1 (unknown origin) at 100 nM incubated for 1 hr in presence of ATP by ELISA analysis.
Experiment [16] has as its system OCI-Ly10. Description: Synergistic antiproliferative activity against human OCILY10 cells harboring MYD88 L265P assessed as inhibition of cell growth at 200 nM incubated for 72 hrs in presence of BTK inhibitor, ibrutinib at 12.5 nM by CCK-8 assay (reference value: 26.07 %). The experiment is classed as functional.
Experiment [17] has as its system OCI-Ly10. Nature of the experiment: Synergistic antiproliferative activity against human OCILY10 cells harboring MYD88 L265P assessed as inhibition of cell growth at 1600 nM incubated for 72 hrs in presence of BTK inhibitor, ibrutinib at 6.2 nM by CCK-8 assay (reference value: 64.69 %). In kind it is functional.
In experiment [18] the test system is OCI-Ly10. Description: Induction of apoptosis in human OCILY10 cells assessed as early apoptotic cells at 0.2 uM incubated for 24 hrs by Annexin V-FITC/PI staining based flow cytometry (reference value: 10 %). The experiment is classed as functional.
Experiment [19] relates to OCI-Ly10. Nature of the experiment: Synergistic antiproliferative activity against human OCILY10 cells harboring MYD88 L265P assessed as inhibition of cell growth at 100 nM incubated for 72 hrs in presence of BTK inhibitor, ibrutinib at 25 nM by CCK-8 assay (reference value: 21.36 %). The experiment is classed as functional.
Experiment [20] relates to OCI-Ly10. Description: Induction of apoptosis in human OCILY10 cells assessed as early apoptotic cells at 0.1 uM incubated for 48 hrs by Annexin V-FITC/PI staining based flow cytometry (reference value: 5.4 %). The experiment is classed as functional.
The test system of experiment [21] is OCI-Ly10. Nature of the experiment: Synergistic antiproliferative activity against human OCILY10 cells harboring MYD88 L265P assessed as inhibition of cell growth at 100 nM incubated for 72 hrs in presence of BTK inhibitor, ibrutinib at 3.1 nM by CCK-8 assay (reference value: 21.36 %). In kind it is functional.
Experiment [22] relates to OCI-Ly10. Nature of the experiment: Synergistic antiproliferative activity against human OCILY10 cells harboring MYD88 L265P assessed as inhibition of cell growth at 200 nM incubated for 72 hrs in presence of BTK inhibitor, ibrutinib at 3.1 nM by CCK-8 assay (reference value: 26.07 %). The experiment is classed as functional.
Experiment [23] deals with OCI-Ly10. Nature of the experiment: Synergistic antiproliferative activity against human OCILY10 cells harboring MYD88 L265P assessed as inhibition of cell growth at 800 nM incubated for 72 hrs in presence of BTK inhibitor, ibrutinib at 12.5 nM by CCK-8 assay (reference value: 54.76 %). In kind it is functional.
Experiment [24] relates to OCI-Ly10. Nature of the experiment: Induction of apoptosis in human OCILY10 cells harboring MYD88 L265P assessed as early apoptotic cells at 0.2 uM incubated for 48 hrs in presence of BTK inhibitor, ibrutinib by Annexin V-FITC/PI staining based flow cytometry (reference value: 6.76 %). The experiment is classed as functional.

Each structure is given as a SMILES string. Active and inactive are the calls of the source. No cut-off for these calls is given here.

Tyrosine-protein kinase ABL1 (Homo sapiens), sequence (P00519 whole entry): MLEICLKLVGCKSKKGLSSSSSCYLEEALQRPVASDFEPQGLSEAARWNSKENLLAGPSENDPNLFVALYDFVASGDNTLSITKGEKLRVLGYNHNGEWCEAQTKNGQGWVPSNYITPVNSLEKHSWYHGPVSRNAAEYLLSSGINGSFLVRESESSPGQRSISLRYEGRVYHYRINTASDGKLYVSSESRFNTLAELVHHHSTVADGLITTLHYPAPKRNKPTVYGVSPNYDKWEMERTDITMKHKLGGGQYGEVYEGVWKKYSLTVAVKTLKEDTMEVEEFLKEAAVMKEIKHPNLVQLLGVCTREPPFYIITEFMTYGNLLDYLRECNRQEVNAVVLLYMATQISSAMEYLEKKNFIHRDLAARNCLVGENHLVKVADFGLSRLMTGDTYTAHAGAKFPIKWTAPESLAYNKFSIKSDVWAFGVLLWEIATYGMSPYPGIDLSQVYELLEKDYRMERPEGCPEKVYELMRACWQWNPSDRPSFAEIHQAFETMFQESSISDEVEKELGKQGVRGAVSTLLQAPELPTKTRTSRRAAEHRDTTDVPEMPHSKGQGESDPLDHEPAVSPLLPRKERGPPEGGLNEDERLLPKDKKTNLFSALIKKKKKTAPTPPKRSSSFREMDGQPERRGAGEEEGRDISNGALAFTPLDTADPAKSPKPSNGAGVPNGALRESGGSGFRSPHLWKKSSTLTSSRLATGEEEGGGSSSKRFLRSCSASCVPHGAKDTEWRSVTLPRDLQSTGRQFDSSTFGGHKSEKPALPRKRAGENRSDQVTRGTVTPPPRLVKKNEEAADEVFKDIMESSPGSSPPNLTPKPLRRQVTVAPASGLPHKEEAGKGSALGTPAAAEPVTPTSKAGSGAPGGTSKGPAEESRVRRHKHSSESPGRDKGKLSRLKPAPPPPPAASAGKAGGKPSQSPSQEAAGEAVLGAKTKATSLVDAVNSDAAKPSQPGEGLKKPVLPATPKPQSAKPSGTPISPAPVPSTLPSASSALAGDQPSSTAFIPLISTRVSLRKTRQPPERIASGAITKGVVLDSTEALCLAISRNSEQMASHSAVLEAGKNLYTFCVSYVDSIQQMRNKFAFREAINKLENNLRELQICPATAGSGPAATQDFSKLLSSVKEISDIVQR
Insulin-like growth factor 1 receptor (Homo sapiens), sequence (P08069 31-736 limits assumed): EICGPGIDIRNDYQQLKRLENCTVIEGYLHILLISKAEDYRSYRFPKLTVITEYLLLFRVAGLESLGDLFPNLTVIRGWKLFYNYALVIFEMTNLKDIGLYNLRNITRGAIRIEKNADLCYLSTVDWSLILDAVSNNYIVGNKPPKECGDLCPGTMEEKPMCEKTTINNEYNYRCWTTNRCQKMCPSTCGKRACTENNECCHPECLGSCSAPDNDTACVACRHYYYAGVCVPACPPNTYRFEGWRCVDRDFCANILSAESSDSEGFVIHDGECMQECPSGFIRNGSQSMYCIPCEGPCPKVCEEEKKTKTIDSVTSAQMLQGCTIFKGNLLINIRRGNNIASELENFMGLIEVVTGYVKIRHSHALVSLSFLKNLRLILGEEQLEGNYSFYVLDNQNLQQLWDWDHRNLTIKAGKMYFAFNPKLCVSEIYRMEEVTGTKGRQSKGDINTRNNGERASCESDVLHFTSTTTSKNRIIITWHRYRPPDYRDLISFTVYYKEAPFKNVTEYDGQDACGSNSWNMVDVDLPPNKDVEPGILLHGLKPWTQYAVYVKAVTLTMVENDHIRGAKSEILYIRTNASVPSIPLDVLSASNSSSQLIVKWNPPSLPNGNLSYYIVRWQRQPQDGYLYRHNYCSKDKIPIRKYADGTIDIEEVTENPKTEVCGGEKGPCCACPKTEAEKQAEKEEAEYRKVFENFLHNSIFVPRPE
Insulin-like growth factor 1 receptor (Homo sapiens), sequence (P08069 741-1367 limits assumed): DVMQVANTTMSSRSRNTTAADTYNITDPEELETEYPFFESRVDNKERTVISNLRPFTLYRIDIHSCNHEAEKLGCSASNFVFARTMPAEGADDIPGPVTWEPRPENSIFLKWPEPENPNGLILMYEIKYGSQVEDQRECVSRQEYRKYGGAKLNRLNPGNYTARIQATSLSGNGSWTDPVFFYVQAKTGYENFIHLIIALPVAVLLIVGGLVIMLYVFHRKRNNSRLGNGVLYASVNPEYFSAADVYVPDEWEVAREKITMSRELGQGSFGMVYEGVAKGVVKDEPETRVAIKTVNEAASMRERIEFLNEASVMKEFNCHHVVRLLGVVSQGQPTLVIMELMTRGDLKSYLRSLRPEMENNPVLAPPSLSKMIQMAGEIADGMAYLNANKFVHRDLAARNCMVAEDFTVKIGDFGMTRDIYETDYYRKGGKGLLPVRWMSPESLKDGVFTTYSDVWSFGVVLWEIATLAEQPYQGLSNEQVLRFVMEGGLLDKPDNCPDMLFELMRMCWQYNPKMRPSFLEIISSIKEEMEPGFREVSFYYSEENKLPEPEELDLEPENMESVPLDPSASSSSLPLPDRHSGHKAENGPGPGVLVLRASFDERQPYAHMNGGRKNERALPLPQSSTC
Fibroblast growth factor receptor 1 (Homo sapiens), sequence (P11362 22-822 limits assumed): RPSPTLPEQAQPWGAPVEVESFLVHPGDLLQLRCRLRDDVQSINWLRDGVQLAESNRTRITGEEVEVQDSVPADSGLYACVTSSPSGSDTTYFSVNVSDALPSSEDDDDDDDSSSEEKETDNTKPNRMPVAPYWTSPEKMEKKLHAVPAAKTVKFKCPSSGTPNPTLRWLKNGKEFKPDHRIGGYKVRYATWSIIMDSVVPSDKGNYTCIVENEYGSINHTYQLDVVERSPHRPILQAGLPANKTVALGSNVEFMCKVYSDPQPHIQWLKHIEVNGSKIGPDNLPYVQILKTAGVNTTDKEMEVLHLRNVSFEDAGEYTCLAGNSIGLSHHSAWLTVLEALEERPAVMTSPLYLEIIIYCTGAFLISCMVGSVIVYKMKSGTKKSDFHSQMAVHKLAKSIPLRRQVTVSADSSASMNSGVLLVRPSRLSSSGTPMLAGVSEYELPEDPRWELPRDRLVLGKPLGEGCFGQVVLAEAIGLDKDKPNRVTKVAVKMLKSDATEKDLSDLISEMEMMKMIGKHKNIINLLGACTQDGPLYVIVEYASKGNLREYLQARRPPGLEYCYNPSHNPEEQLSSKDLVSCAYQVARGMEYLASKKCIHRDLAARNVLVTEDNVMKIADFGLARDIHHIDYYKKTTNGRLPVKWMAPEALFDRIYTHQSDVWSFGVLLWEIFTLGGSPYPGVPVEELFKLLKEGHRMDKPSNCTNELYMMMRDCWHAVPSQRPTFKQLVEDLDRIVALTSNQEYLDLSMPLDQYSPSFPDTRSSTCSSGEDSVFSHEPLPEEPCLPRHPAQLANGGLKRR
Ephrin type-A receptor 2 (Homo sapiens), sequence (P29317 whole entry): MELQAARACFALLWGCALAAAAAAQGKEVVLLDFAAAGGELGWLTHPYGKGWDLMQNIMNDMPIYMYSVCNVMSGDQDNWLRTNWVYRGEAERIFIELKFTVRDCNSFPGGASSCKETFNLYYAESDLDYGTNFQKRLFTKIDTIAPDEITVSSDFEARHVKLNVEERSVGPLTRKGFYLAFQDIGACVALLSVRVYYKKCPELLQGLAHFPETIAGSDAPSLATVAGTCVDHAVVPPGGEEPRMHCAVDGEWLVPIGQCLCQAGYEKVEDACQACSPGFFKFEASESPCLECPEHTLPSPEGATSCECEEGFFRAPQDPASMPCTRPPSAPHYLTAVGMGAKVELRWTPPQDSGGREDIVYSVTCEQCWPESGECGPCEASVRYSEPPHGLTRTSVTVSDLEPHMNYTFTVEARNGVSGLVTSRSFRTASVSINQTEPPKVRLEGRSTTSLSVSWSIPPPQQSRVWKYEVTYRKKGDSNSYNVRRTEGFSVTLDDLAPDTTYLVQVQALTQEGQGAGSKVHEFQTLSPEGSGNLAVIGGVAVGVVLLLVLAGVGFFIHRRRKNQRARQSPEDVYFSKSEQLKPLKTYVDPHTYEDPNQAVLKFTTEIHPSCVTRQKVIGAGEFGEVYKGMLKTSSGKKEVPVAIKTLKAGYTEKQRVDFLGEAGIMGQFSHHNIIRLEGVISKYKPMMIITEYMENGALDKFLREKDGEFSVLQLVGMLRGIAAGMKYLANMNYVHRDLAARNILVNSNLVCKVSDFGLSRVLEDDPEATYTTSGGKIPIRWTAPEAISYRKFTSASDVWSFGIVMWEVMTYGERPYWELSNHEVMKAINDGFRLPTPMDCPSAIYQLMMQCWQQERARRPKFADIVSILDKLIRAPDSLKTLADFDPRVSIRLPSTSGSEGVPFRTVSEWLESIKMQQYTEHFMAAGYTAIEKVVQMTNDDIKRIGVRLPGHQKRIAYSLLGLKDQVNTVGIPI

The inhibition is the share of the control response that was lost under treatment. As usually defined, the IC50 is the concentration at which inhibition is half-maximal. Consider `Cn1cc(-c2cc3c(cc2NC(=O)c2coc(-c4ccnc(N)c4)n2)CC(C)(C)O3)cn1`, for which the inhibition result in experiment [1], in experiment [4], in [5], in [14] and in experiment [15] was “inactive” throughout. Also, the result with OCI-Ly10 [2] and in the experiment on OCI-Ly10 [9] was Active. Moreover, the inhibition at 0.4 µM with OCI-Ly10 [3] amounted to 67.2%; in the experiment on OCI-Ly10 [12], 37.4%. Besides, the Activity in the experiment with OCI-Ly10 [6] came to 45.7%; in the experiment with OCI-Ly10 [8], 22%; in the experiment on OCI-Ly10 [10], 9.32%; in the experiment with OCI-Ly10 [13] it was 36.4%; in the experiment on OCI-Ly10 [18], 11.2%; in the experiment with OCI-Ly10 [20], 12.9%. Moreover, the Activity with OCI-Ly10 [24] was 19.6%. In [7], the midpoint of inhibition, the IC50, lay at 8.7 nM. In addition, the inhibition at 0.2 µM in the experiment with OCI-Ly10 [11] was 26.9%; in the experiment with OCI-Ly10 [16] it was 67.5%; in the experiment on OCI-Ly10 [22], 29.5%. The inhibition at 1.6 µM with OCI-Ly10 [17] was 88.6%. For the same molecule, the inhibition at 0.1 µM in the experiment with OCI-Ly10 [19] was determined as 72.2%; in the experiment on OCI-Ly10 [21], 21.8%. For the same molecule, in the experiment with OCI-Ly10 [23], the inhibition at 0.8 µM was 86.4%.
